Measured values as given in ChEMBL document CHEMBL3885881, “DrugMatrix”.

Organism: Rattus norvegicus
Assay: DrugMatrix - Regimen: Daily Repeat
Format: toxicity, organism-based, Sprague-Dawley
Set-up: regimen Daily Repeat, gender Male, age 6-8 weeks
Conditions: in vivo, iv, vehicle 100 % SALINE; for ABSOLUTE BASOPHIL / ABSOLUTE EOSINOPHIL / ABSOLUTE LYMPHOCYTE / ABSOLUTE MONOCYTE / ABSOLUTE SEGMENTED NEUTROPHIL / BASOPHIL / EOSINOPHIL / ERYTHROCYTE COUNT / HEMATOCRIT / HEMOGLOBIN / LEUKOCYTE COUNT / LYMPHOCYTE / MEAN CORPUSCULAR HEMOGLOBIN / MEAN CORPUSCULAR HEMOGLOBIN CONCENTRATION / MEAN CORPUSCULAR VOLUME / MONOCYTE / NEUTROPHIL / NUCLEATED RED BLOOD CELLS / PLATELET COUNT: tissue Blood; for ALANINE AMINOTRANSFERASE / ALBUMIN / ALKALINE PHOSPHATASE / ASPARTATE AMINOTRANSFERASE / BLOOD UREA NITROGEN / CARBON DIOXIDE / CHLORIDE / CHOLESTEROL / CREATINE PHOSPHOKINASE / CREATININE / GLUCOSE / LACTATE DEHYDROGENASE / LIPASE / PHOSPHORUS / POTASSIUM / SODIUM / TOTAL BILIRUBIN / TOTAL PROTEIN / URIC ACID: tissue Plasma
[1] = 0 mg/kg, 72 h, dose level Control, time 3 day
[2] = 0 mg/kg, 120 h, dose level Control, time 5 day
[3] = 3 mg/kg, 72 h, dose level Low, time 3 day

O=c1[nH]c(=O)n([C@H]2C[C@H](O)[C@@H](CO)O2)cc1F [FLOXURIDINE]
ABSOLUTE BASOPHIL [1]: 0 CELLS/uL | ABSOLUTE EOSINOPHIL [1]: 0 CELLS/uL | ABSOLUTE LYMPHOCYTE [1]: 11636.83 CELLS/uL | ABSOLUTE MONOCYTE [1]: 159 CELLS/uL | ABSOLUTE SEGMENTED NEUTROPHIL [1]: 1170.83 CELLS/uL | BASOPHIL [1]: 0% | EOSINOPHIL [1]: 0% | ERYTHROCYTE COUNT [1]: 5.46 x10E6/uL | HEMATOCRIT [1]: 34.05% | HEMOGLOBIN [1]: 13.58 G/DL | LEUKOCYTE COUNT [1]: 12.97 x10E3/uL | LYMPHOCYTE [1]: 89.67% | MEAN CORPUSCULAR HEMOGLOBIN [1]: 24.87 pg | MEAN CORPUSCULAR HEMOGLOBIN CONCENTRATION [1]: 39.9 G/DL | MEAN CORPUSCULAR VOLUME [1]: 62.3 fL | MONOCYTE [1]: 1.33% | NEUTROPHIL [1]: 9% | NUCLEATED RED BLOOD CELLS [1]: 0.17 /100WBC | PLATELET COUNT [1]: 824 x10E3/uL | ALANINE AMINOTRANSFERASE [1]: 64.83 u/L | ALBUMIN [1]: 4.08 G/DL | ALKALINE PHOSPHATASE [1]: 421 u/L | ASPARTATE AMINOTRANSFERASE [1]: 116.83 u/L | BLOOD UREA NITROGEN [1]: 16.83 mg/dL | CARBON DIOXIDE [1]: 28 mmol/L | CHLORIDE [1]: 101.33 MEQ/L | CHOLESTEROL [1]: 74.17 mg/dL | CREATINE PHOSPHOKINASE [1]: 748.5 u/L | CREATININE [1]: 0.22 mg/dL | GLUCOSE [1]: 152.83 mg/dL | LACTATE DEHYDROGENASE [1]: 578.5 u/L | LIPASE [1]: 9.83 u/L | PHOSPHORUS [1]: 11.63 mg/dL | POTASSIUM [1]: 5.93 MEQ/L | SODIUM [1]: 142.1 MEQ/L | TOTAL BILIRUBIN [1]: 0.17 mg/dL | TOTAL PROTEIN [1]: 5.77 G/DL | URIC ACID [1]: 1.43 mg/dL | ABSOLUTE BASOPHIL [2]: 0 CELLS/uL | ABSOLUTE EOSINOPHIL [2]: 159.17 CELLS/uL | ABSOLUTE LYMPHOCYTE [2]: 12267.5 CELLS/uL | ABSOLUTE MONOCYTE [2]: 30 CELLS/uL | ABSOLUTE SEGMENTED NEUTROPHIL [2]: 1160 CELLS/uL | BASOPHIL [2]: 0% | EOSINOPHIL [2]: 1.17% | ERYTHROCYTE COUNT [2]: 5.52 x10E6/uL | HEMATOCRIT [2]: 34.3% | HEMOGLOBIN [2]: 13.73 G/DL | LEUKOCYTE COUNT [2]: 13.62 x10E3/uL | LYMPHOCYTE [2]: 90.5% | MEAN CORPUSCULAR HEMOGLOBIN [2]: 24.92 pg | MEAN CORPUSCULAR HEMOGLOBIN CONCENTRATION [2]: 40.07 G/DL | MEAN CORPUSCULAR VOLUME [2]: 62.17 fL | MONOCYTE [2]: 0.17% | NEUTROPHIL [2]: 8.17% | NUCLEATED RED BLOOD CELLS [2]: 0.17 /100WBC | PLATELET COUNT [2]: 1261.83 x10E3/uL | ALANINE AMINOTRANSFERASE [2]: 58.67 u/L | ALBUMIN [2]: 4.15 G/DL | ALKALINE PHOSPHATASE [2]: 364.67 u/L | ASPARTATE AMINOTRANSFERASE [2]: 105.33 u/L | BLOOD UREA NITROGEN [2]: 17.67 mg/dL | CARBON DIOXIDE [2]: 26.5 mmol/L | CHLORIDE [2]: 101.67 MEQ/L | CHOLESTEROL [2]: 63 mg/dL | CREATINE PHOSPHOKINASE [2]: 480.67 u/L | CREATININE [2]: 0.17 mg/dL | GLUCOSE [2]: 144.67 mg/dL | LACTATE DEHYDROGENASE [2]: 540.33 u/L | LIPASE [2]: 10.33 u/L | PHOSPHORUS [2]: 11.52 mg/dL | POTASSIUM [2]: 6.12 MEQ/L | SODIUM [2]: 142.45 MEQ/L | TOTAL BILIRUBIN [2]: 0.18 mg/dL | TOTAL PROTEIN [2]: 5.73 G/DL | URIC ACID [2]: 1.48 mg/dL | ABSOLUTE BASOPHIL [3]: 0 CELLS/uL | ABSOLUTE EOSINOPHIL [3]: 0 CELLS/uL | ABSOLUTE LYMPHOCYTE [3]: 9392.67 CELLS/uL | ABSOLUTE MONOCYTE [3]: 101.67 CELLS/uL | ABSOLUTE SEGMENTED NEUTROPHIL [3]: 505.67 CELLS/uL | BASOPHIL [3]: 0% | EOSINOPHIL [3]: 0% | ERYTHROCYTE COUNT [3]: 5.12 x10E6/uL | HEMATOCRIT [3]: 32.33% | HEMOGLOBIN [3]: 13.1 G/DL | LEUKOCYTE COUNT [3]: 10 x10E3/uL | LYMPHOCYTE [3]: 94% | MEAN CORPUSCULAR HEMOGLOBIN [3]: 25.7 pg | MEAN CORPUSCULAR HEMOGLOBIN CONCENTRATION [3]: 40.53 G/DL | MEAN CORPUSCULAR VOLUME [3]: 63.17 fL | MONOCYTE [3]: 1% | NEUTROPHIL [3]: 5% | NUCLEATED RED BLOOD CELLS [3]: 0 /100WBC | PLATELET COUNT [3]: 833.67 x10E3/uL | ALANINE AMINOTRANSFERASE [3]: 54.67 u/L | ALBUMIN [3]: 4.4 G/DL | ALKALINE PHOSPHATASE [3]: 391.67 u/L | ASPARTATE AMINOTRANSFERASE [3]: 100 u/L | BLOOD UREA NITROGEN [3]: 17 mg/dL | CARBON DIOXIDE [3]: 29.67 mmol/L | CHLORIDE [3]: 101 MEQ/L | CHOLESTEROL [3]: 79 mg/dL | CREATINE PHOSPHOKINASE [3]: 755 u/L | CREATININE [3]: 0.22 mg/dL | GLUCOSE [3]: 171 mg/dL | LACTATE DEHYDROGENASE [3]: 240.33 u/L | LIPASE [3]: 9 u/L | PHOSPHORUS [3]: 10.77 mg/dL | POTASSIUM [3]: 6.26 MEQ/L | SODIUM [3]: 142.13 MEQ/L | TOTAL BILIRUBIN [3]: 0.2 mg/dL | TOTAL PROTEIN [3]: 6.17 G/DL | URIC ACID [3]: 2.23 mg/dL
